Laboratory results: the supplement of paper PMC11208160

Experiment: recombinant barcode read abundance after kanamycin selection (control-corrected) (log10(CPM+1)); higher = more efficient recombination; sequences stand for … in AGTGCAGAGAAAATCGGCCAGTTTTCTCTGCCTGCAGTCCGCATGCCGT…ATTTATGCAGCGGACTGCCTTTCTCCCAAAGTGATAAACCGGACAGTATCATGGACCGGTTTTCCCGGTAATCCGTATTTGCAAGGTTGGTTTCACT; site = the 11-nt target
How it was run: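 Reported as log10(CPM+1), each value stands for recombination efficiency. That efficiency is the averaged, control-corrected counts per million of barcodes found at recombinant junctions. Cells from a pooled E. coli library pairing targets with IS621 bridge RNA target-binding loops were plated twice on chloramphenicol/ampicillin LB agar (control) and twice on chloramphenicol/ampicillin/kanamycin with 0.1 mM IPTG.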
With “CGGTCCCCTTGGGTTCTAACCTGTTGCCACA [CGGTCCCCTTG_LTGcore_CT_RTGcore_TG] (site CGGTCCCCTTG) (LTG core: CT, RTG core: TG)” the “recombinant barcode read abundance (log10)” value was 0.0539.
With “CGGTCCCCTTGGGTTCTAACCTGTTGCCACG [CGGTCCCCTTG_LTGcore_CT_RTGcore_CG] (site CGGTCCCCTTG) (LTG core: CT, RTG core: CG)” the “recombinant barcode read abundance (log10)” value was 0.0795.
In the case of “CGGTCCCCTTGGGTTCTAACCTGTTGCCAGC [CGGTCCCCTTG_LTGcore_CT_RTGcore_GC] (site CGGTCCCCTTG) (LTG core: CT, RTG core: GC)”, the “recombinant barcode read abundance (log10)” value is reported as 0.178.
In the case of “CGGTCCCCTTGGGTTCTAACCTGTTGCCATA [CGGTCCCCTTG_LTGcore_CT_RTGcore_TA] (site CGGTCCCCTTG) (LTG core: CT, RTG core: TA)”, the “recombinant barcode read abundance (log10)” value is reported as 0.222.
With “CGGTCCCCTTGGGTTCTAACCTGTTGCCATC [CGGTCCCCTTG_LTGcore_CT_RTGcore_GA] (site CGGTCCCCTTG) (LTG core: CT, RTG core: GA)” the “recombinant barcode read abundance (log10)” value was 0.208.
In the case of “CGGTCCCCTTGGGTTCTAACCTGTTGCCATT [CGGTCCCCTTG_LTGcore_CT_RTGcore_AA] (site CGGTCCCCTTG) (LTG core: CT, RTG core: AA)”, the “recombinant barcode read abundance (log10)” value is reported as 0.369.
For “GAGCCCAACTGGGTTCTAACCTGTTGCCTGT [GAGCCCACTAG_LTGcore_AC_RTGcore_AC] (site GAGCCCACTAG) (LTG core: AC, RTG core: AC)”, the “recombinant barcode read abundance (log10)” value was 0.199.
With “GAGCCCAATTGGGTTCTAACCTGTTGCCTAT [GAGCCCACTAG_LTGcore_AT_RTGcore_AT] (site GAGCCCACTAG) (LTG core: AT, RTG core: AT)” the “recombinant barcode read abundance (log10)” value was 0.154.
With “GAGCCCACCTGGGTTCTAACCTGTTGCCTGG [GAGCCCACTAG_LTGcore_CC_RTGcore_CC] (site GAGCCCACTAG) (LTG core: CC, RTG core: CC)” the “recombinant barcode read abundance (log10)” value was 0.0451.
In the case of “GAGCCCACGTGGGTTCTAACCTGTTGCCTAG [GAGCCCACTAG_LTGcore_CG_RTGcore_CT] (site GAGCCCACTAG) (LTG core: CG, RTG core: CT)”, the “recombinant barcode read abundance (log10)” value is reported as 0.2.
With “GAGCCCATCTGGGTTCTAACCTGTTGCCTGA [GAGCCCACTAG_LTGcore_TC_RTGcore_TC] (site GAGCCCACTAG) (LTG core: TC, RTG core: TC)” the “recombinant barcode read abundance (log10)” value was 0.0397.
With “GAGGCCTCATGGGTTCTAACCTGTTGCCATG [GAGGCCTCTTG_LTGcore_CA_RTGcore_CA] (site GAGGCCTCTTG) (LTG core: CA, RTG core: CA)” the “recombinant barcode read abundance (log10)” value was 0.0323.
With “GAGGCCTCCTGGGTTCTAACCTGTTGCCAAG [GAGGCCTCTTG_LTGcore_CC_RTGcore_CT] (site GAGGCCTCTTG) (LTG core: CC, RTG core: CT)” the “recombinant barcode read abundance (log10)” value was 0.273.
With “GAGGCCTCGTGGGTTCTAACCTGTTGCCACG [GAGGCCTCTTG_LTGcore_CG_RTGcore_CG] (site GAGGCCTCTTG) (LTG core: CG, RTG core: CG)” the “recombinant barcode read abundance (log10)” value was 0.169.
With “GAGGCCTCTTGGGTTCTAACCTGTTGCCAGC [GAGGCCTCTTG_LTGcore_CT_RTGcore_GC] (site GAGGCCTCTTG) (LTG core: CT, RTG core: GC)” the “recombinant barcode read abundance (log10)” value was 0.285.
With “GAGGCCTGATGGGTTCTAACCTGTTGCCATC [GAGGCCTCTTG_LTGcore_GA_RTGcore_GA] (site GAGGCCTCTTG) (LTG core: GA, RTG core: GA)” the “recombinant barcode read abundance (log10)” value was 0.231.
With “GAGGCCTGCTGGGTTCTAACCTGTTGCCAGC [GAGGCCTCTTG_LTGcore_GC_RTGcore_GC] (site GAGGCCTCTTG) (LTG core: GC, RTG core: GC)” the “recombinant barcode read abundance (log10)” value was 0.275.
With “GAGGCCTTATGGGTTCTAACCTGTTGCCATA [GAGGCCTCTTG_LTGcore_TA_RTGcore_TA] (site GAGGCCTCTTG) (LTG core: TA, RTG core: TA)” the “recombinant barcode read abundance (log10)” value was 0.172.
In the case of “GAGTCCAAATGGGTTCTAACCTGTTGCGTAG [GAGTCCACTAC_LTGcore_AA_RTGcore_CT] (site GAGTCCACTAC) (LTG core: AA, RTG core: CT)”, the “recombinant barcode read abundance (log10)” value is reported as 0.0292.
In the case of “GAGTCCACTTGGGTTCTAACCTGTTGCGTAG [GAGTCCACTAC_LTGcore_CT_RTGcore_CT] (site GAGTCCACTAC) (LTG core: CT, RTG core: CT)”, the “recombinant barcode read abundance (log10)” value is reported as 2.39.
With “GAGTCCACTTGGGTTCTAACCTGTTGCGTCC [GAGTCCACTAC_LTGcore_CT_RTGcore_GG] (site GAGTCCACTAC) (LTG core: CT, RTG core: GG)” the “recombinant barcode read abundance (log10)” value was 0.482.
In the case of “GAGTCCACTTGGGTTCTAACCTGTTGCGTGA [GAGTCCACTAC_LTGcore_CT_RTGcore_TC] (site GAGTCCACTAC) (LTG core: CT, RTG core: TC)”, the “recombinant barcode read abundance (log10)” value is reported as 0.116.
In the case of “GAGTCCACTTGGGTTCTAACCTGTTGCGTTT [GAGTCCACTAC_LTGcore_CT_RTGcore_AA] (site GAGTCCACTAC) (LTG core: CT, RTG core: AA)”, the “recombinant barcode read abundance (log10)” value is reported as 1.07.
With “GAGTCCTATTGGGTTCTAACCTGTTGCCTAG [GAGTCCTCTAG_LTGcore_AT_RTGcore_CT] (site GAGTCCTCTAG) (LTG core: AT, RTG core: CT)” the “recombinant barcode read abundance (log10)” value was 0.0701.
For “GAGTCCTATTGGGTTCTAACCTGTTGCCTAT [GAGTCCTCTAG_LTGcore_AT_RTGcore_AT] (site GAGTCCTCTAG) (LTG core: AT, RTG core: AT)”, the “recombinant barcode read abundance (log10)” value was 0.0431.
In the case of “GAGTCCTCGTGGGTTCTAACCTGTTGCCTAG [GAGTCCTCTAG_LTGcore_CG_RTGcore_CT] (site GAGTCCTCTAG) (LTG core: CG, RTG core: CT)”, the “recombinant barcode read abundance (log10)” value is reported as 0.274.
With “GAGTCCTCTTGGGTTCTAACCTGTTGCCTAT [GAGTCCTCTAG_LTGcore_CT_RTGcore_AT] (site GAGTCCTCTAG) (LTG core: CT, RTG core: AT)” the “recombinant barcode read abundance (log10)” value was 0.495.
With “GAGTCCTCTTGGGTTCTAACCTGTTGCCTGC [GAGTCCTCTAG_LTGcore_CT_RTGcore_GC] (site GAGTCCTCTAG) (LTG core: CT, RTG core: GC)” the “recombinant barcode read abundance (log10)” value was 0.293.
With “GAGTCCTCTTGGGTTCTAACCTGTTGCCTTT [GAGTCCTCTAG_LTGcore_CT_RTGcore_AA] (site GAGTCCTCTAG) (LTG core: CT, RTG core: AA)” the “recombinant barcode read abundance (log10)” value was 0.398.
In the case of “GCGCGACAATGGGTTCTAACCTGTTGCTTAG [GCGCGACCTAA_LTGcore_AA_RTGcore_CT] (site GCGCGACCTAA) (LTG core: AA, RTG core: CT)”, the “recombinant barcode read abundance (log10)” value is reported as 0.
For “GCGCGACACTGGGTTCTAACCTGTTGCTTAG [GCGCGACCTAA_LTGcore_AC_RTGcore_CT] (site GCGCGACCTAA) (LTG core: AC, RTG core: CT)”, the “recombinant barcode read abundance (log10)” value was 0.131.
For “GCGCGACCGTGGGTTCTAACCTGTTGCTTAG [GCGCGACCTAA_LTGcore_CG_RTGcore_CT] (site GCGCGACCTAA) (LTG core: CG, RTG core: CT)”, the “recombinant barcode read abundance (log10)” value was 0.217.
For “GCGCGACCGTGGGTTCTAACCTGTTGCTTCG [GCGCGACCTAA_LTGcore_CG_RTGcore_CG] (site GCGCGACCTAA) (LTG core: CG, RTG core: CG)”, the “recombinant barcode read abundance (log10)” value was 0.282.
For “GCGCGACCTTGGGTTCTAACCTGTTGCTTGG [GCGCGACCTAA_LTGcore_CT_RTGcore_CC] (site GCGCGACCTAA) (LTG core: CT, RTG core: CC)”, the “recombinant barcode read abundance (log10)” value was 0.
For “GCGCGACCTTGGGTTCTAACCTGTTGCTTTA [GCGCGACCTAA_LTGcore_CT_RTGcore_TA] (site GCGCGACCTAA) (LTG core: CT, RTG core: TA)”, the “recombinant barcode read abundance (log10)” value was 0.265.
For “GCGCGACCTTGGGTTCTAACCTGTTGCTTTG [GCGCGACCTAA_LTGcore_CT_RTGcore_CA] (site GCGCGACCTAA) (LTG core: CT, RTG core: CA)”, the “recombinant barcode read abundance (log10)” value was 0.102.
For “GCGCGACGGTGGGTTCTAACCTGTTGCTTCC [GCGCGACCTAA_LTGcore_GG_RTGcore_GG] (site GCGCGACCTAA) (LTG core: GG, RTG core: GG)”, the “recombinant barcode read abundance (log10)” value was 0.315.
With “GCGCGACGTTGGGTTCTAACCTGTTGCTTAG [GCGCGACCTAA_LTGcore_GT_RTGcore_CT] (site GCGCGACCTAA) (LTG core: GT, RTG core: CT)” the “recombinant barcode read abundance (log10)” value was 0.0314.
For “GCGCGACTATGGGTTCTAACCTGTTGCTTTA [GCGCGACCTAA_LTGcore_TA_RTGcore_TA] (site GCGCGACCTAA) (LTG core: TA, RTG core: TA)”, the “recombinant barcode read abundance (log10)” value was 0.118.
With “GCGCGACTCTGGGTTCTAACCTGTTGCTTGA [GCGCGACCTAA_LTGcore_TC_RTGcore_TC] (site GCGCGACCTAA) (LTG core: TC, RTG core: TC)” the “recombinant barcode read abundance (log10)” value was 0.228.
In the case of “GCGGGACAATGGGTTCTAACCTGTTGCCTAG [GCGGGACCTAG_LTGcore_AA_RTGcore_CT] (site GCGGGACCTAG) (LTG core: AA, RTG core: CT)”, the “recombinant barcode read abundance (log10)” value is reported as 0.227.
With “GCGGGACACTGGGTTCTAACCTGTTGCCTAG [GCGGGACCTAG_LTGcore_AC_RTGcore_CT] (site GCGGGACCTAG) (LTG core: AC, RTG core: CT)” the “recombinant barcode read abundance (log10)” value was 0.121.
In the case of “GCGGGACATTGGGTTCTAACCTGTTGCCTAT [GCGGGACCTAG_LTGcore_AT_RTGcore_AT] (site GCGGGACCTAG) (LTG core: AT, RTG core: AT)”, the “recombinant barcode read abundance (log10)” value is reported as 0.11.
With “GCGGGACCTTGGGTTCTAACCTGTTGCCTCA [GCGGGACCTAG_LTGcore_CT_RTGcore_TG] (site GCGGGACCTAG) (LTG core: CT, RTG core: TG)” the “recombinant barcode read abundance (log10)” value was 0.682.
In the case of “GCGGGACCTTGGGTTCTAACCTGTTGCCTGG [GCGGGACCTAG_LTGcore_CT_RTGcore_CC] (site GCGGGACCTAG) (LTG core: CT, RTG core: CC)”, the “recombinant barcode read abundance (log10)” value is reported as 0.0406.
